This is an account of results in paper PMC11055700 (Chemicke Zvesti, 2024).

Read-outs that look alike come from different tables or passages of the source.

What is called melting point is the temperature of the solid-liquid transition.

Data set [1] deals with T1, SARS-CoV-2 Spike-RBD (ancestral, WT) / ACE2 (Homo sapiens, UniProt Q9BYF1).
T1 construct: a SARS-CoV-2 RBD protein containing a C-terminal His tag; a full-length ACE2 peptide with a C-terminal Fc tag; purchased Sino Biological
Nature of the data set: biochemical. The class given is binding. The following applies: IC50 Spike/ACE2.

Data set [2] concerns the target T2, SARS-CoV-2 Spike-RBD (lambda) / ACE2 (Homo sapiens, UniProt Q9BYF1).
T2 construct: a SARS-CoV-2 RBD protein containing a C-terminal His tag; a full-length ACE2 peptide with a C-terminal Fc tag; purchased Sino Biological
Nature of the data set: biochemical. The class given is binding.

Data set [3] addresses T3, SARS-CoV-2 Spike-RBD (beta) / ACE2 (Homo sapiens, UniProt Q9BYF1).
T3 construct: a SARS-CoV-2 RBD protein containing a C-terminal His tag; a full-length ACE2 peptide with a C-terminal Fc tag; purchased Sino Biological
The experiment in a line: biochemical. The class given is binding.

The target in data set [4] is T4, SARS-CoV-2 Spike-RBD (delta) / ACE2 (Homo sapiens, UniProt Q9BYF1).
T4 construct: a SARS-CoV-2 RBD protein containing a C-terminal His tag; a full-length ACE2 peptide with a C-terminal Fc tag; purchased Sino Biological
T4 sequence (Q9BYF1 18-740): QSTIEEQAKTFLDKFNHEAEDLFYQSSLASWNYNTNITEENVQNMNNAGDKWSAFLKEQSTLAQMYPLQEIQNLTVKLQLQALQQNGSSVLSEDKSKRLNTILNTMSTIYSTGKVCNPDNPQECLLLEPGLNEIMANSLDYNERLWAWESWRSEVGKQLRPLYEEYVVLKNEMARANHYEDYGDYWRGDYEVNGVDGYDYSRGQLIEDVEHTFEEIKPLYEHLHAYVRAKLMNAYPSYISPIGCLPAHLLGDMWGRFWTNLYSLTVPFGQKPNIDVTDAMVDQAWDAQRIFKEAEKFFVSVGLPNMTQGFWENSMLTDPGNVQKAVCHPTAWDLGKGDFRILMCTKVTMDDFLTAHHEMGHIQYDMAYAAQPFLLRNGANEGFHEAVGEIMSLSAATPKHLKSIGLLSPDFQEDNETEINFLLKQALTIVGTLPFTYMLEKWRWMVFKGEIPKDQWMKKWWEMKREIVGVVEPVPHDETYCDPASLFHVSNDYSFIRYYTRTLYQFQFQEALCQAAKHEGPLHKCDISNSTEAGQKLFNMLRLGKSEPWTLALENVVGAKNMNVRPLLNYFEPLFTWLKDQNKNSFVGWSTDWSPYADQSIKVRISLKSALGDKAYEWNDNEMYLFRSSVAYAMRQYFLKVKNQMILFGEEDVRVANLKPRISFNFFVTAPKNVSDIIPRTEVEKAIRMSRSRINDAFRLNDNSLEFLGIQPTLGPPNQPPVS
The experiment in a line: biochemical. The class given is binding.

For data set [5], the target named is T5, human PD-1 / human PD-L1 (Homo sapiens, UniProt Q15116+Q9NZQ7).
T5 construct: purchased Sino Biological
T5 sequence (Q15116 25-167 limits assumed): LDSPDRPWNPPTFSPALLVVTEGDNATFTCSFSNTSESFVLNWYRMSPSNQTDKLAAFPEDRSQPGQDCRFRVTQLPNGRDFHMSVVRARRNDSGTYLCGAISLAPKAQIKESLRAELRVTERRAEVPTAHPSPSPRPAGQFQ
T5 sequence (Q9NZQ7 19-239 limits assumed): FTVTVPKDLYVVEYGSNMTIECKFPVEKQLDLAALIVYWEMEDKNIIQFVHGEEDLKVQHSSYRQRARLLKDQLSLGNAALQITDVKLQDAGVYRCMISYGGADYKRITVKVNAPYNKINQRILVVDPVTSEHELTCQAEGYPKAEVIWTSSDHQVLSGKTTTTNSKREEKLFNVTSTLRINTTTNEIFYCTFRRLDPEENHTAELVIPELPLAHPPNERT
Nature of the data set: AlphaScreen PD-1-PD-L1 binding assay. As to conditions: unrelated ligand-receptor pair. For orientation: In Alpha technology, singlet oxygen from a donor bead excites a nearby acceptor bead.

Data set [6] addresses T6, SARS-CoV-2 Spike-RBD (omicron) / ACE2 (Homo sapiens, UniProt Q9BYF1).
T6 construct: a SARS-CoV-2 RBD protein containing a C-terminal His tag; a full-length ACE2 peptide with a C-terminal Fc tag; purchased Sino Biological
The experiment in a line: biochemical. The class given is binding.

T3 sequence (Q9BYF1 18-740): as the sequence (Q9BYF1 18-740) above
T6 sequence (Q9BYF1 18-740, change not shown): as the sequence (Q9BYF1 18-740) above
T2 sequence (Q9BYF1 18-740): as above
T1 sequence (Q9BYF1 18-740): as above

As for `O=C1Nc2ccc(Cl)cc2C1=NNc1ccc([N+](=O)[O-])cc1[N+](=O)[O-]` [H2L, 5-chloro-3-(2-(2,4-dinitrophenyl)hydrazono)indolin-2-one], the melting point is > 350 °C. Moreover, the IC50 in data set [1] was found to be 260 nM. Further, the IC50 in data set [2] turned out to be 628 nM. Further, the IC50 in data set [3] was 490 nM. The compound also showed an IC50 in data set [4] of 464 nM. In data set [5], the IC50 was 2060 nM. In data set [6], this compound had an IC50 of 615 nM.
REGN10933: the IC50 in data set [2] (read-out: IC50 spike RBD/ACE2 binding, Lambda RBD sequence) was 0.8 nM; in data set [3] (read-out: IC50 spike RBD/ACE2 binding, Beta RBD sequence) it was 90.9 nM; in data set [4] (read-out: IC50 spike RBD/ACE2 binding, Delta RBD sequence), 1.4 nM; in data set [6] (read-out: IC50 spike RBD/ACE2 binding, Omicron RBD sequence), > 700 nM. Also, the “fold weaker against the beta RBD” value in data set [3] is ~ 70 fold.
